Laboratory results as given in patent publication US10617680B2 (CELGENE QUANTICEL RESEARCH, INC., priority 2017, dated 2020).

Molecular target: CBP (Homo sapiens (Human), UniProt Q92793)
Test: In vitro CBP inhibition (AlphaScreen, biotinylated H4-tetraacetyl peptide)
Type: binding
Conditions: AlphaScreen, Table 29; read-out: CBP IC50
Outline: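 His-tagged CBP expressed in E. coli (50 nM final) incubated with biotinylated H4K5/8/12/16(Ac) peptide (20 nM final) in 50 mM HEPES pH 7.3, 10 mM NaCl, 0.25 mM TCEP, 0.1% BSA, 0.005% Brij-35, 0.4% DMSO, 20 min at room temp.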

Sequence of CBP (Q92793 1081-1197): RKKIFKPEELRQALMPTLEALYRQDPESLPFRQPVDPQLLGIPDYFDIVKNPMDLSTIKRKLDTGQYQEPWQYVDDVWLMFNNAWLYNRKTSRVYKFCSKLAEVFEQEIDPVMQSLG

Structure (SMILES)	IC50
Cn1cc(-c2cnn(-c3cccc(Cl)c3C#N)c2)c(-c2ccc(OC3CCCC3)nc2)cc1=O [Example 352, 2-chloro-6-[4-[4-[6-(cyclopentoxy)-3-pyridyl]-1-methyl-6-oxo-3-pyridyl]pyrazol-1-yl]benzonitrile]	< 500 nM
Cn1cc(-c2cnn(-c3cccc(F)c3C#N)c2)c(-c2ccc(OC(F)F)nc2)cc1=O [Example 353, 2-(4-(6-(difluoromethoxy)-1′-methyl-6′-oxo-1′,6′-dihydro-[3,4′-bipyridin]-3′-yl)-1H-pyrazol-1-yl)-6-fluorobenzonitrile]	< 500 nM
Cn1cc(-c2cnn(-c3cccc(Cl)c3C#N)c2)c(-c2ccc(OC(F)F)nc2)cc1=O [Example 354, 2-chloro-6-(4-(6-(difluoromethoxy)-1′-methyl-6′-oxo-1′,6′-dihydro-[3,4′-bipyridin]-3′-yl)-1H-pyrazol-1-yl)benzonitrile]	< 500 nM
CC(C)Oc1ccc(-c2cc(=O)n(C)cc2-c2cnn(-c3cccc(F)c3C#N)c2)cn1 [Example 358, 2-fluoro-6-[4-[4-(6-isopropoxy-3-pyridyl)-1-methyl-6-oxo-3-pyridyl]pyrazol-1-yl]benzonitrile]	< 500 nM
CCOc1ccc(-c2cc(=O)n(C)cc2-c2cnn(-c3cccc(F)c3C#N)c2)cn1 [Example 359, 2-(4-(6-ethoxy-1′-methyl-6′-oxo-1′,6′-dihydro-[3,4′-bipyridin]-3′-yl)-1H-pyrazol-1-yl)-6-fluorobenzonitrile]	< 500 nM
Cn1cc(-c2cnn(-c3cccc(F)c3C#N)c2)c(-c2ccc(OCC3CC3)nc2)cc1=O [Example 360, 2-[4-[4-[6-(cyclopropylmethoxy)-3-pyridyl]-1-methyl-6-oxo-3-pyridyl]pyrazol-1-yl]-6-fluoro-benzonitrile]	< 500 nM
Cn1cc(-c2cnn(-c3cccc(F)c3C#N)c2)c(-c2ccc(OC3CCCC3)nc2)cc1=O [Example 361]	< 500 nM
Cn1cc(-c2cnn(-c3cccc(F)c3C#N)c2)c(-c2ccc(C(F)(F)F)nc2)cc1=O [Example 368, 2-fluoro-6-(4-(1′-methyl-6′-oxo-6-(trifluoromethyl)-1′,6′-dihydro-[3,4′-bipyridin]-3′-yl)-1H-pyrazol-1-yl)benzonitrile]	< 500 nM
Cc1ccc(-c2cc(=O)n(C)cc2-c2cnn(-c3cccc(Cl)c3C#N)c2)cn1 [Example 369, 2-chloro-6-(4-(1′,6-dimethyl-6′-oxo-1′,6′-dihydro-[3,4′-bipyridin]-3′-yl)-1H-pyrazol-1-yl)benzonitrile]	< 500 nM
CCc1ccc(-c2cc(=O)n(C)cc2-c2cnn(-c3cccc(Cl)c3C#N)c2)cn1 [Example 371, 2-chloro-6-(4-(6-ethyl-1′-methyl-6′-oxo-1′,6′-dihydro-[3,4′-bipyridin]-3′-yl)-1H-pyrazol-1-yl)benzonitrile]	< 500 nM
Cn1cc(-c2cnn(-c3cccc(F)c3C#N)c2)c(-c2ccc(C3CC3)nc2)cc1=O [Example 374, 2-[4-[4-(6-cyclopropyl-3-pyridyl)-1-methyl-6-oxo-3-pyridyl]pyrazol-1-yl]-6-fluoro-benzonitrile]	< 500 nM
CC(C)c1ccc(-c2cc(=O)n(C)cc2-c2cnn(-c3cccc(F)c3C#N)c2)cn1 [Example 375, 2-fluoro-6-[4-[4-(6-isopropyl-3-pyridyl)-1-methyl-6-oxo-3-pyridyl]pyrazol-1-yl]benzonitrile]	< 500 nM
Cn1cc(-c2cnn(-c3cccc(F)c3C#N)c2)c(-c2ccc(C3CCCC3)nc2)cc1=O [Example 378, 2-(4-(6-cyclopentyl-1′-methyl-6′-oxo-1′,6′-dihydro-[3,4′-bipyridin]-3′-yl)-1H-pyrazol-1-yl)-6-fluorobenzonitrile]	< 500 nM
Cn1cc(-c2cnn(-c3cccc(Cl)c3C#N)c2)c(-c2ccc(C3CCCC3)nc2)cc1=O [Example 379, 2-chloro-6-(4-(6-cyclopentyl-1′-methyl-6′-oxo-1′,6′-dihydro-[3,4′-bipyridin]-3′-yl)-1H-pyrazol-1-yl)benzonitrile]	< 500 nM
CN(C)CCCOc1ccc(-c2cc(=O)n(C)cc2-c2cnn(-c3cccc(C4CC4)c3C#N)c2)cn1 [Example 382, 2-cyclopropyl-6-(4-(6-(3-(dimethylamino)propoxy)-1′-methyl-6′-oxo-1′,6′-dihydro-[3,4′-bipyridin]-3′-yl)-1H-pyrazol-1-yl)benzonitrile]	< 500 nM
COc1ccc(-c2cc(=O)n(C)cc2-c2cnn(-c3cccc(C4CC4)c3C#N)c2)cn1 [Example 383, 2-cyclopropyl-6-(4-(6-methoxy-1′-methyl-6′-oxo-1′,6′-dihydro-[3,4′-bipyridin]-3′-yl)-1H-pyrazol-1-yl)benzonitrile]	< 500 nM
CCOc1ccc(-c2cc(=O)n(C)cc2-c2cnn(-c3cccc(C4CC4)c3C#N)c2)cn1 [Example 384, 2-cyclopropyl-6-(4-(6-ethoxy-1′-methyl-6′-oxo-1′,6′-dihydro-[3,4′-bipyridin]-3′-yl)-1H-pyrazol-1-yl)benzonitrile]	< 500 nM
CCCn1ccc(-c2cc(=O)n(C)cc2-c2cnn(-c3cccc(C4CC4)c3C#N)c2)cc1=O [Example 385, 2-cyclopropyl-6-[4-[1-methyl-6-oxo-4-(2-oxo-1-propyl-4-pyridyl)-3-pyridyl]pyrazol-1-yl]benzonitrile]	< 500 nM
Cn1cc(-c2cnn(-c3cccc(C4CC4)c3C#N)c2)c(-c2ccc(OCCF)nc2)cc1=O [Example 387, 2-cyclopropyl-6-[4-[4-[6-(2-fluoroethoxy)-3-pyridyl]-1-methyl-6-oxo-3-pyridyl]pyrazol-1-yl]benzonitrile]	< 500 nM

Further lines, results first:

IC50	Structure (SMILES)
< 500 nM	CN(C)CCCOc1ccc(-c2cc(=O)n(C)cc2-c2cnn(-c3ccccc3C#N)c2)cn1 [Example 355, 2-(4-(6-(3-(dimethylamino)propoxy)-1′-methyl-6′-oxo-1′,6′-dihydro-[3,4′-bipyridin]-3′-yl)-1H-pyrazol-1-yl)benzonitrile]
< 500 nM	Cn1cc(-c2cnn(-c3cccc(Cl)c3C#N)c2)c(-c2ccc(OCC3CC3)nc2)cc1=O [Example 357, 2-chloro-6-[4-[4-[6-(cyclopropylmethoxy)-3-pyridyl]-1-methyl-6-oxo-3-pyridyl]pyrazol-1-yl]benzonitrile]
< 500 nM	Cn1cc(-c2cnn(-c3cccc(F)c3C#N)c2)c(-c2ccc(OC3CC3)nc2)cc1=O [Example 362, 2-[4-[4-[6-(cyclopropoxy)-3-pyridyl]-1-methyl-6-oxo-3-pyridyl)pyrazol-1-yl]-6-fluoro-benzonitrile]
< 500 nM	CC(C)Oc1ccc(-c2cc(=O)n(C)cc2-c2cnn(-c3cccc(Cl)c3C#N)c2)cn1 [Example 363, 2-chloro-6-[4-[4-(6-isopropoxy-3-pyridyl)-1-methyl-6-oxo-3-pyridyl]pyrazol-1-yl]benzonitrile]
< 500 nM	Cn1cc(-c2cnn(-c3cccc(Cl)c3C#N)c2)c(-c2ccc(OC3CC3)nc2)cc1=O [Example 364, 2-chloro-6-[4-[4-[6-(cyclopropoxy)-3-pyridyl]-1-methyl-6-oxo-3-pyridyl]pyrazol-1-yl]benzonitrile]
< 500 nM	CCOc1ccc(-c2cc(=O)n(C)cc2-c2cnn(-c3cccc(Cl)c3C#N)c2)cn1 [Example 365, 2-chloro-6-(4-(6-ethoxy-1′-methyl-6′-oxo-1′,6′-dihydro-[3,4′-bipyridin]-3′-yl)-1H-pyrazol-1-yl)benzonitrile]
< 500 nM	Cn1cc(-c2cnn(-c3cccc(Cl)c3C#N)c2)c(-c2ccc(C3CC3)nc2)cc1=O [Example 366, 2-chloro-6-[4-[4-(6-cyclopropyl-3-pyridyl)-1-methyl-6-oxo-3-pyridyl]pyrazol-1-yl]benzonitrile]
< 500 nM	Cc1ccc(-c2cc(=O)n(C)cc2-c2cnn(-c3cccc(F)c3C#N)c2)cn1 [Example 367, 2-(4-(1′,6-dimethyl-6′-oxo-1′,6′-dihydro-[3,4′-bipyridin]-3′-yl)-1H-pyrazol-1-yl)-6-fluorobenzonitrile]
< 500 nM	Cn1cc(-c2cnn(-c3cccc(Cl)c3C#N)c2)c(-c2ccc(C(F)(F)F)nc2)cc1=O [Example 370, 2-chloro-6-(4-(1′-methyl-6′-oxo-6-(trifluoromethyl)-1′,6′-dihydro-[3,4′-bipyridin]-3′-yl)-1H-pyrazol-1-yl)benzonitrile]
< 500 nM	CCc1ccc(-c2cc(=O)n(C)cc2-c2cnn(-c3cccc(F)c3C#N)c2)cn1 [Example 372, 2-(4-(6-ethyl-1′-methyl-6-oxo-1′,6′-dihydro-[3,4′-bipyridin]-3′-yl)-1H-pyrazol-1-yl)-6-fluorobenzonitrile]
< 500 nM	CCc1ccc(-c2cc(=O)n(C)cc2-c2cnn(-c3ccccc3C#N)c2)cn1 [Example 373, 2-(4-(6-ethyl-1-methyl-6′-oxo-1′,6′-dihydro-[3,4′-bipyridin]-3′-yl)-1H-pyrazol-1-yl)benzonitrile]
< 500 nM	CC(C)c1ccc(-c2cc(=O)n(C)cc2-c2cnn(-c3cccc(Cl)c3C#N)c2)cn1 [Example 376, 2-chloro-6-[4-[4-(6-isopropyl-3-pyridyl)-1-methyl-6-oxo-3-pyridyl]pyrazol-1-yl]benzonitrile]
< 500 nM	Cc1ccc(-c2cc(=O)n(C)cc2-c2cnn(-c3ccccc3C#N)c2)cn1 [Example 377, 2-(4-(1′,6-dimethyl-6′-oxo-1′,6′-dihydro-[3,4′-bipyridin]-3′-yl)-1H-pyrazol-1-yl)benzonitrile]
< 500 nM	Cn1ccc(-c2cc(=O)n(C)cc2-c2cnn(-c3cccc(C4CC4)c3C#N)c2)cc1=O [Example 380, 2-cyclopropyl-6-[4-[1-methyl-4-(1-methyl-2-oxo-4-pyridyl)-6-oxo-3-pyridyl]pyrazol-1-yl]benzonitrile]
< 500 nM	Cn1cc(-c2cnn(-c3cccc(C4CC4)c3C#N)c2)c(-c2ccn(CC3CC3)c(=O)c2)cc1=O [Example 381, 2-cyclopropyl-6-[4-[4-[1-(cyclopropylmethyl)-2-oxo-4-pyridyl]-1-methyl-6-oxo-3-pyridyl]pyrazol-1-yl]benzonitrile]
< 500 nM	CCn1ccc(-c2cc(=O)n(C)cc2-c2cnn(-c3cccc(C4CC4)c3C#N)c2)cc1=O [Example 386, 2-cyclopropyl-6-[4-[4-(1-ethyl-2-oxo-4-pyridyl)-1-methyl-6-oxo-3-pyridyl]pyrazol-1-yl]benzonitrile]
